Measurements reported in paper PMC9466626, “Discovery of new 1H-pyrazolo[3,4-d]pyrimidine derivatives as anticancer agents targeting EGFR^WT and EGFR^T790M” (Journal of Enzyme Inhibition and Medicinal Chemistry, 2022).
Read-outs that look alike come from different tables or passages of the source.

What was measured:
A549 = test: In vitro anti-proliferative MTT assay, A549; assay type: cell-based, human; conditions: for IC50: Homo sapiens; for HillSlope (best-fit value), A549 / LogIC50 (best-fit value), A549: supplement IC50 graph
Description: These two cell lines were selected in this test due to the overexpression of EGFR in human lung and colon cancer cell lines[48]^,[49]. The tested cells were reported to have a high expression level of EGFR. […]
(§1) 1.1. In vitro antiproliferative activities
The in vitro antiproliferative activities of all the synthesized compounds against two human […]
evaluated quantitatively as described in the literature, using MTT assay protocol . two […]
proliferative activity was assessed quantitatively as follows.
(§2) Human cancer cell lines were dropped in 96 -well plates at a density of 3-8 × 10^3 cells/well.
Next, the wells were incubated for 12 h in a 5% CO 2 incubator at 37 °C. Then, for each well, the growth medium was exchanged with 0.1 ml of fresh medium containing graded concentrations of the test compounds to be or equal DMSO and incubated for two days. Then 10 μl MTT solution ([…]) was added to each well, and the cells were incubated for additional 4 h. The crystals of MTT-formazan were dissolved in 100 μl of DMSO; the absorbance of each well was measured at 490 nm using an automatic ELISA reader system (TECAN, CHE). The IC 50 values were calculated using the nonlinear regression fitting models (Graph Pad, Prism Version 5). The data represented the mean of three independent experiments in triplicate and were expressed as means ± SD. The […]
(§3) The results were expressed as growth inhibitory concentration (IC50) values and […]

HCT-116 = test: In vitro anti-proliferative MTT assay, HCT-116; assay type: cell-based, human; conditions: for IC50: Homo sapiens, HCT-116, mean of three experiments, read-out: In vitro cytotoxicity IC50, HCT-116; for IC50 / anti-proliferative activity against HCT-116 in words: MTT; for HillSlope (best-fit value), HCT-116 / LogIC50 (best-fit value), HCT-116: supplement IC50 graph
Description: The cytotoxic activities of the synthesised compounds were assessed against two human cancer cell lines (lung, A549) and (colon HCT-116) using an MTT assay. These two cell lines were selected in this test due to the overexpression of EGFR in human lung and colon cancer cell lines[48]^,[49]. The tested cells were reported to have a high expression level of EGFR.
In vitro cytotoxicity was carried out for the synthesised compounds against A549, HCT-116, and WI-38 cell lines using the MTT assay protocol[52–55] as described in Supplementary data. […]
as §1
The in vitro antiproliferative activities of all the synthesized compounds against two human tumor cell lines namely, (lung, A549) and (colon HCT-116) and one normal cell line (WI-38) were evaluated quantitatively as described in the literature, using MTT assay protocol . two commercially available drugs (erlotinib) were used in this test as positive controls. The anti-proliferative activity was assessed quantitatively as follows.
as §2
Next, the wells were incubated for 12 h in a 5% CO 2 incubator at 37 °C. Then, for each well, the growth medium was exchanged with 0.1 ml of fresh medium containing graded concentrations of the test compounds to be or equal DMSO and incubated for two days. Then 10 μl MTT solution ([…]) was added to each well, and the cells were incubated for additional 4 h. The crystals of MTT-formazan were dissolved in 100 μl of DMSO; the absorbance of each well was measured at 490 nm using an automatic ELISA reader system (TECAN, CHE). The IC 50 values were calculated using the nonlinear regression fitting models (Graph Pad, Prism Version 5). The data represented the mean of three independent experiments in triplicate and were expressed as means ± SD. The IC50 value was defined as the concentration at which 50% of the cells could survive.
as §3

in vitro = conditions: human, WI-38 normal cells
Description: (§4) Next, the wells were incubated for 12 h in a 5% CO 2 incubator at 37 °C. Then, for each well, the growth medium was exchanged with 0.1 ml of fresh medium containing graded concentrations of the test compounds to be or equal DMSO and incubated for two days. Then 10 μl MTT solution (5 μg/ml) was added to each well, and the cells were incubated for additional 4 h. The crystals of MTT-formazan were dissolved in 100 μl of DMSO; the absorbance of each well was measured at 490 nm using an automatic ELISA reader system (TECAN, CHE). The IC 50 values were calculated using the nonlinear regression fitting models (Graph Pad, Prism Version 5). The data represented the mean of three independent experiments in triplicate and were expressed as means ± SD.

WI-38 = test: In vitro cytotoxicity against normal cells (MTT), WI-38; conditions: supplement graph
Description: as §4

EGFR^WT = target: T1, EGFR^WT (Homo sapiens, UniProt P00533); test: EGFR^WT kinase inhibitory assay (HTRF); assay type: biochemical
T1 construct: purchased Sigma
T1 sequence (P00533 25-1210): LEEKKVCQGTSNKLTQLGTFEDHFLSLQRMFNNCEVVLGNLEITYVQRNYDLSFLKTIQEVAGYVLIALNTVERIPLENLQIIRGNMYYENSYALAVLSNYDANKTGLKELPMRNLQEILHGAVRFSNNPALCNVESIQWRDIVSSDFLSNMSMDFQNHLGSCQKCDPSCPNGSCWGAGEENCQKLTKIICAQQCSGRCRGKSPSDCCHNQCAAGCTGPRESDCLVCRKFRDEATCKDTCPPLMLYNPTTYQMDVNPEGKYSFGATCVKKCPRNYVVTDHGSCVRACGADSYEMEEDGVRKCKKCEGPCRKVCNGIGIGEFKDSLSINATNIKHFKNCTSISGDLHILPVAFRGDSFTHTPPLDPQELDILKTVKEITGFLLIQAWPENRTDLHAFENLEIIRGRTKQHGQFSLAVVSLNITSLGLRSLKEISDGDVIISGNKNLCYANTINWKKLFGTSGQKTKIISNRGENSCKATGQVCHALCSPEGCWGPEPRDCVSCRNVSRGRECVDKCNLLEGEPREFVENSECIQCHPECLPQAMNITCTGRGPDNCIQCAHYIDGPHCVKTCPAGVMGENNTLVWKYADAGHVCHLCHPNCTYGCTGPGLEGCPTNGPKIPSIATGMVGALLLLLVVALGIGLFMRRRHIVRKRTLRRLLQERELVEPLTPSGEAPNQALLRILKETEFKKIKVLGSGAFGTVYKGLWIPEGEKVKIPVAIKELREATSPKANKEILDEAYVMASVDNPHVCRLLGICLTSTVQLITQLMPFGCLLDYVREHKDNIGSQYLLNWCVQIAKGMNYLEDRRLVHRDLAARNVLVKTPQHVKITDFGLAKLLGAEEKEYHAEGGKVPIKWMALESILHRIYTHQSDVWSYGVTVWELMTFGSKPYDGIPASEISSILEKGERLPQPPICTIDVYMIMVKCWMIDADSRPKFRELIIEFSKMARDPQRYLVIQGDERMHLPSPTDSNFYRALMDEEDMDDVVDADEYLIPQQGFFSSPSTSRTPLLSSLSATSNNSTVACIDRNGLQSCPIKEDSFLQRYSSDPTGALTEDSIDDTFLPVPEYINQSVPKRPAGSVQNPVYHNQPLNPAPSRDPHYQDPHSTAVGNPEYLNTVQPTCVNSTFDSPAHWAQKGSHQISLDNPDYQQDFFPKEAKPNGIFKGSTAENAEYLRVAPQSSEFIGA
Description: In vitro EGFR inhibitory activity was assessed using a Homogeneous time-resolved fluorescence (HTRF) assay[56] as described in Supplementary data.
4.1.1. EGFRWT and EGFRT790M kinase inhibitory assay […]
against four cancer cell lines were further examined for their inhibitory activities against both […]
Homogeneous time resolved fluorescence (HTRF) assay was applied in this test. EGFRWT, EGFRT790M (Sigma). firstly, the EGFRWT and/or EGFRT790M and their substrates were incubated with the tested compounds in enzymatic buffer for 5 min. […]
the enzymatic reaction. The assay was conducted for 30 min at room temperature. The reaction was stopped by addition of detection reagents which contain EDTA. The detection step continued […]
experiments were performed for each concentration. […]

[1] = A549, MTT, mean of three experiments, read-out: In vitro cytotoxicity IC50, A549
[2] = HTRF, mean of three experiments, read-out: EGFR^WT IC50
[3] = supplement graph, axis Log (nM)
[4] = supplement graph, axis Log (nM), read-out: IC50 (best-fit value of graph), EGFR inhibition

IC50 (A549; A549, read-out: IC50 (best-fit value of graph), A549) [µM] | IC50 at 2 days (in vitro) [µM] | IC50 (EGFR^WT; [2]) [nM] | HillSlope (best-fit value), EGFR inhibition (EGFR^WT; supplement graph) | LogIC50 (best-fit value), EGFR inhibition (EGFR^WT; [3]) | IC50 (EGFR^WT; [4]) [nM] | Compound | IC50 (A549; [1]) [µM] | HillSlope (best-fit value), A549 (A549) | LogIC50 (best-fit value), A549 (A549) | IC50 (HCT-116) [µM] | HillSlope (best-fit value), HCT-116 (HCT-116) | LogIC50 (best-fit value), HCT-116 (HCT-116) | HillSlope (best-fit value), WI-38 (WI-38) | LogIC50 (best-fit value), WI-38 (WI-38) | anti-proliferative activity against HCT-116 in words (HCT-116)
6.78 | 33.8 | – | – | – | – | C#Cc1cccc(Nc2ncnc3cc(OCCOC)c(OCCOC)cc23)c1 [Erlotinib, reference compound] | 6.77 | -0.3354 | 0.8309 | 19.2 | -0.3370 | 1.284 | -0.4750 | 1.528 | –
– | – | – | – | – | – | Clc1ccc(C=NNc2nc(Nc3ccccc3)nc3c2cnn3-c2ccccc2)cc1 [Compound 11b, 4–(2-(4-Chlorobenzylidene)hydrazinyl)-N,1-diphenyl-1H-pyrazolo[3,4-d]pyrimidin-6-amine] | 75.7 | -0.3813 | 1.879 | 75.1 | -0.5652 | 1.876 | – | – | –
– | – | – | – | – | – | COc1ccc(C=NNc2nc(Nc3ccccc3)nc3c2cnn3-c2ccccc2)cc1 [Compound 11a, 4–(2-(4-Methoxybenzylidene)hydrazinyl)-N,1-diphenyl-1H-pyrazolo[3,4-d] pyrimidin-6-amine] | 47.7 | -0.4514 | 1.678 | 46.2 | -0.4760 | 1.664 | – | – | –
– | – | 26 | -0.3385 | 1.415 | 26 | c1ccc(Nc2nc(Nc3ccccc3)c3cnn(-c4ccccc4)c3n2)cc1 [Compound 8, N4,N6,1-Triphenyl-1H-pyrazolo[3,4-d]pyrimidine-4,6-diamine] | 16.8 | -0.3605 | 1.224 | 24.2 | -0.4231 | 1.383 | – | – | –
– | – | – | – | – | – | c1ccc(Nc2nc(NC3CCCCC3)c3cnn(-c4ccccc4)c3n2)cc1 [Compound 9, N4-Cyclohexyl-N6,1-diphenyl-1H-pyrazolo[3,4-d]pyrimidine-4,6-diamine] | 29.1 | -0.3708 | 1.463 | 39.4 | -0.3946 | 1.595 | – | – | –
– | – | – | – | – | – | CCCNC(=S)NNc1nc(Nc2ccccc2)nc2c1cnn2-c1ccccc1 [Compound 13b, 2–(1-Phenyl-6-(phenylamino)-1H-pyrazolo[3,4-d]pyrimidin-4-yl)-N-propyl hydrazine-1-carbothioamide] | 15.4 | -0.3921 | 1.186 | 36.4 | -0.3703 | 1.562 | – | – | –
– | – | – | – | – | – | CCCNc1nc(Nc2ccccc2)nc2c1cnn2-c1ccccc1 [Compound 7b, N4-Propyl-N6,1-diphenyl-1H-pyrazolo[3,4-d]pyrimidine-4,6-diamine] | 67.4 | -0.4700 | 1.829 | 31.5 | -0.4549 | 1.498 | – | – | moderate
– | – | – | – | – | – | CC(=NNc1nc(Nc2ccccc2)nc2c1cnn2-c1ccccc1)c1ccc(C)cc1 [Compound 12c, N,1-Diphenyl-4–(2-(1-(p-tolyl)ethylidene)hydrazinyl)-1H-pyrazolo [3,4-d] pyrimidin-6-amine] | 28.8 | -0.4080 | 1.459 | 28.7 | -0.4467 | 1.458 | – | – | moderate
– | – | 21 | -0.3296 | 1.321 | 21 | CC(=NNc1nc(Nc2ccccc2)nc2c1cnn2-c1ccccc1)c1ccccc1 [Compound 12a, N,1-Diphenyl-4–(2-(1-phenylethylidene)hydrazinyl)-1H-pyrazolo[3,4-d]pyrimidin-6-amine] | 13.7 | -0.3395 | 1.137 | 23.3 | -0.4063 | 1.368 | – | – | –
– | – | – | – | – | – | CCNc1nc(Nc2ccccc2)nc2c1cnn2-c1ccccc1 [Compound 7a, N4-Ethyl-N6,1-diphenyl-1H-pyrazolo[3,4-d]pyrimidine-4,6-diamine] | 64.4 | -0.4567 | 1.809 | 29.6 | -0.4339 | 1.472 | – | – | moderate
– | – | – | – | – | – | CCNC(=S)NNc1nc(Nc2ccccc2)nc2c1cnn2-c1ccccc1 [Compound 13a, N-Ethyl-2–(1-phenyl-6-(phenylamino)-1H-pyrazolo[3,4-d]pyrimidin-4-yl) hydrazine-1-carbothioamide] | 43.1 | -0.4011 | 1.635 | 27 | -0.4156 | 1.432 | – | – | moderate
– | – | 23 | -0.3619 | 1.366 | 23.2 | NNc1nc(Nc2ccccc2)nc2c1cnn2-c1ccccc1 [Compound 10, 4-Hydrazinyl-N,1-diphenyl-1H-pyrazolo[3,4-d]pyrimidin-6-amine] | 15.7 | -0.3765 | 1.195 | 18.8 | -0.3276 | 1.274 | – | – | –
